In patent publication US20080113347A1, “Method for the in Vitro Diagnosis and Prognosis of Demyelinating Diseases, and for the Development of Drugs Against Demyelinating Diseases” (priority 2003, published 2008):
Where “and” joins values, the source holds several entries; their conditions need not be identical. Equal entries are not always repeated.

Test system: dusp6 gene expression
Assay: Real time quantitative RT-PCR of dusp6 expression in primary oligodendrocyte cultures
Assay type: cell-based, rat
Settings: for Experimental dusp6 crossing points (Cp), single replicas: replicas 1 and 2; for Dusp6 overexpression values (Fold Change) with regard to the untreated control, Ratio: standardized to GAPDH
Method: The method used consists of reverse transcription of mRNA to cDNA and its subsequent amplification into a LightCycler equipment (Roche), using SYBR Green for the detection of the amplified product. Real time quantification is carried out, and it allows calculating the relative expression of the sequence in different samples in the linear amplification phase of the reaction.
Samples: Primary oligodendrocyte culture samples treated with AMPA were analyzed. The samples came from cultures different from those analyzed with DNA microarrays. 4 cultures were carried out:
control: untreated cultured oligodendrocytes
ampa 2: oligodendrocytes treated for 2 minutes with 10 μM AMPA and collected after treatment
ampa 10: oligodendrocytes treated for 10 minutes with 10 μM AMPA collected after treatment
ampa 15: oligodendrocytes treated for 15 minutes with 10 μM AMPA and collected 60 minutes later.
Real time quantitative RT-PCR. The total RNA of each one of the cultures was obtained by homogenizing the cells in TRIzol® Reagent (Life Technologies) following the supplier's recommendations. The resulting total RNA was cleaned with the RNeasy kit (QIAGEN) (Chomczynski P. et al., Anal. Biochem., 1987, 162: 156; Chomczynski P., Biotechniques, 1993, 15: 532). The total RNA samples were conserved at −80° C. from the moment they were obtained until they were used. The RNA was spectrophotometrically quantified and 5 μg of total RNA were digested with DNase (2 U/μl) of Ambion at a concentration of 2 U per μg of RNA, for 30 minutes at 37° C.
1 μg of RNA treated with DNAse as a starting material was used for the synthesis of the first cDNA strand with the reverse transcriptase enzyme SuperScript™ II RNase (Life Technologies), using an oligo-dT oligonucleotide as a primer which contained the sequence of the promoter of the phage T7 RNA polymerase. Aliquots of cDNA diluted to the working concentration were used.
Synthesized cDNA was amplified using specific primers of the rat dusp6 gene (SEQ ID NO: 1 and SEQ ID NO: 2), and of the gene encoding the rat protein glyceraldehyde 3-phosphate dehydrogenase, Genebank accession number NM_017008 (SEQ ID NO:21 and SEQ ID NO:22). Real time PCR reactions were prepared using the LightCycler-FastStart DNA master SYBR Green I kit (Roche) following the manufacturer's instructions. The amplification program consisted of […] for 10 min (“hot start”) followed by 45 95° C. cycles (denaturation) for 10 seconds, 60° C. (annealing) for 5 seconds, 72° C. (amplification and fluorescence acquisition) for 10 seconds. The melting curve analysis program consisted of a one-pulse cycle of 95° C., 65° C. for 15 seconds, and a 95° C. pulse during the amplification and acquisition step.
First, specificity of the PCR products was determined by analyzing the melting curves. Subsequently, as a relative measurement of gene expression, the ratio between the abundance of dusp6 transcribed mRNAs and the abundance of GAPDH transcribed mRNAS was calculated, and the data of the ratio was standardized in each one of the treated samples on the basis of control sample values. To calculate efficiency of the PCR reactions (dusp6 and GAPDH), a standard curve was constructed for each gene sequence carried out with cDNA serial dilutions. The template cDNA concentrations for the reactions on the standard curve were arbitrarily given the values 2×, 0.5×, 0.2× and 0.02×. The crossing point values for each one of the reactions were used to construct the standard curve: y=m×+b, where m is the slope and b is the intersection point of the line on the axis of ordinates. Starting RNA concentration values in each sample were obtained from the data of the line using the following formula: […]
The change rate at each point was obtained by dividing the concentration values standardized in comparison to the concentration values in the control.

[1] = 10 μM AMPA 2 minutes, collected after treatment
[2] = 10 μM AMPA 10 minutes, collected after treatment
[3] = 10 μM AMPA 15 minutes, collected 60 minutes later

## Cc1onc(O)c1CC(N)C(=O)O (stereo not drawn) [AMPA, α-amino-3-hydroxy-5-methyl-4-isoxazolepropionic acid]
[1]
  Experimental dusp6 crossing points (Cp), Mean: 30.5
  Experimental dusp6 crossing points (Cp), single replicas: 30.46 and 30.54
  Dusp6 overexpression values (Fold Change) with regard to the untreated control, Ratio: 1.7 fold
[2]
  Experimental dusp6 crossing points (Cp), Mean: 32.23
  Experimental dusp6 crossing points (Cp), single replicas: 32.15 and 32.31
  Dusp6 overexpression values (Fold Change) with regard to the untreated control, Ratio: 0.9 fold
[3]
  Experimental dusp6 crossing points (Cp), Mean: 29.67
  Experimental dusp6 crossing points (Cp), single replicas: 29.73 and 29.61
  Dusp6 overexpression values (Fold Change) with regard to the untreated control, Ratio: 2.7 fold
